Columns and labels:
[1] = tested on: human glioblastoma cells (TB 10); assay: TOF-SIMS analysis of Gd in individual cells; type: cell-based
Description: Time of Flight Secondary Ion Mass-Spectrometry (TOF-SIMS), another technique for microchemical analysis^(22) was utilized to validate data from MEPHISTO spectromicroscopy, in addition to the ICP-MS data. Cell samples were bombarded with either 15 or 25 keV Ga^+ ions, focused in a microscopic beam, which induced desorption of the surface atoms. The emitted ions were then accelerated, and detected by a high resolution mass spectrometer. By scanning the microscopic Ga ion beam, TOF-SIMS produced images of the cell surface, and distribution maps of specific element isotopes, with a spatial resolution of […]. High resolution mass spectra were obtained from microscopic areas, selected as the region of interest in the cell images, to allow quantitative comparison of Gd concentration in sub-cellular regions.
The results obtained in MEPHISTO were corroborated by the TOF-SIMS) data, an independent technique to evaluate elemental distributions at a microscopic scale. Two cells were studied from one of the etched 72-hour exposure samples used in the MEPHISTO experiment. Note in the table that the concentration of Gd is consistently higher in nuclei than in cytoplasm.
TOF-SIMS analysis of a non-etched cell at the nucleus position (also Gd-exposed for 72 hours), was performed before and after strong sputtering to probe the Gd concentration on the membrane and inside the nucleus. The total Gd ion yield, calculated as for the first column of Table 2, gave 0.055 cts/s on the unsputtered sample.
After 30 second sputtering (with 25 keV Ga˜ ions) to remove surface contamination, the total Gd ion yield from the cell membrane was 0.182 cts/s. After 16 minute sputtering to penetrate about […] into the nucleus, the total Gd ion yield was 1.844 cts/s.

LD50 in rats = type: in vivo; conditions: 70 kg human, assuming a similar LD50 in man
[2] = rats; cited from earlier work
[3] = tested on: human glioblastoma cells (TB 10); assay: ICP-MS Gd release/retention after Gd-DTPA wash-out; conditions: 10 mg/ml 72 hours
[4] = Cell 1, Cytoplasm, 72 hours exposure
[5] = Cell 1, Nucleus, 72 hours exposure
[6] = Cell 2, Cytoplasm, 72 hours exposure
[7] = Cell 2, Nucleus, 72 hours exposure

## O=C([O-])CN(CCN(CC(=O)[O-])CC(=O)O)CCN(CC(=O)[O-])CC(=O)O.[Gd+3] [Gd-DTPA, gadolinium diethylene triamine pentaacetic acid]
[1]; Cell 1, 72 hours exposure
  Ratio nucleus:cytoplasm, ^155Gd: 2.51
  Ratio nucleus:cytoplasm, ^155GdO: 2.52
  Ratio nucleus:cytoplasm, ^156Gd: 1.89
  Ratio nucleus:cytoplasm, ^156GdO: 2.03
  Ratio nucleus:cytoplasm, ^157GdO: 2.06
  Ratio nucleus:cytoplasm, ^158Gd: 1.53
  Ratio nucleus:cytoplasm, ^160Gd: 1.99
  Ratio nucleus:cytoplasm, ^160GdO: 2.00
  Ratio nucleus:cytoplasm, total Gd ion yield: 2.02
[1]; [4]
  Detection Rate, ^155Gd: 0.41 Counts/s
  Detection Rate, ^155GdO: 0.63 Counts/s
  Detection Rate, ^156Gd: 0.91 Counts/s
  Detection Rate, ^156GdO: 0.91 Counts/s
  Detection Rate, ^157GdO: 2.08 Counts/s
  Detection Rate, ^158Gd: 0.89 Counts/s
  Detection Rate, ^160Gd: 0.68 Counts/s
  Detection Rate, ^160GdO: 0.94 Counts/s
  Detection Rate, total Gd ion yield: 6.44 Counts/s
[1]; [5]
  Detection Rate, ^155Gd: 1.03 Counts/s
  Detection Rate, ^155GdO: 1.59 Counts/s
  Detection Rate, ^156Gd: 1.72 Counts/s
  Detection Rate, ^156GdO: 1.85 Counts/s
  Detection Rate, ^157GdO: 2.23 Counts/s
  Detection Rate, ^158Gd: 1.36 Counts/s
  Detection Rate, ^160Gd: 1.35 Counts/s
  Detection Rate, ^160GdO: 1.88 Counts/s
  Detection Rate, total Gd ion yield: 12.98 Counts/s
[1]; Cell 2, 72 hours exposure
  Ratio nucleus:cytoplasm, ^155Gd: 1.60
  Ratio nucleus:cytoplasm, ^155GdO: 1.34
  Ratio nucleus:cytoplasm, ^156Gd: 1.86
  Ratio nucleus:cytoplasm, ^156GdO: 1.41
  Ratio nucleus:cytoplasm, ^157GdO: 1.56
  Ratio nucleus:cytoplasm, ^158Gd: 1.84
  Ratio nucleus:cytoplasm, ^160Gd: 1.63
  Ratio nucleus:cytoplasm, ^160GdO: 1.72
  Ratio nucleus:cytoplasm, total Gd ion yield: 1.60
[1]; [6]
  Detection Rate, ^155Gd: 0.23 Counts/s
  Detection Rate, ^155GdO: 0.38 Counts/s
  Detection Rate, ^156Gd: 0.37 Counts/s
  Detection Rate, ^156GdO: 0.51 Counts/s
  Detection Rate, ^157GdO: 0.57 Counts/s
  Detection Rate, ^158Gd: 0.32 Counts/s
  Detection Rate, ^160Gd: 0.33 Counts/s
  Detection Rate, ^160GdO: 0.5 Counts/s
  Detection Rate, total Gd ion yield: 3.21 Counts/s
[1]; [7]
  Detection Rate, ^155Gd: 0.37 Counts/s
  Detection Rate, ^155GdO: 0.51 Counts/s
  Detection Rate, ^156Gd: 0.69 Counts/s
  Detection Rate, ^156GdO: 0.72 Counts/s
  Detection Rate, ^157GdO: 0.89 Counts/s
  Detection Rate, ^158Gd: 0.59 Counts/s
  Detection Rate, ^160Gd: 0.54 Counts/s
  Detection Rate, ^160GdO: 0.86 Counts/s
  Detection Rate, total Gd ion yield: 5.13 Counts/s
[1]; non-etched cell at the nucleus position, 72 hours exposure, unsputtered sample
  total Gd ion yield: 0.055 cts/s
[1]; non-etched cell, 72 hours exposure, after 30 second sputtering
  total Gd ion yield from the cell membrane: 0.182 cts/s
[1]; non-etched cell, 72 hours exposure, after 16 minute sputtering to penetrate about 1 pm into the nucleus
  total Gd ion yield: 1.844 cts/s
LD50 in rats
  amount injected for a 50% chance of killing: more than 850 g
[2]
  LD50: 20 mmol/kg
[3]; FIG. 4
  immediate loss of Gd from the cell bodies after wash-out: about 80%
[3]; then two to four hours in physiological solution
  intracellular retained Gd concentration: 140 µg/mL

From patent US6770020B2 (priority 2001, dated 2004)
